Data published in the NIST ThermoML archive (doi:10.1016/j.jct.2013.01.013).

Columns and labels:
[1] = 101 kPa, Liquid; for viscosity: Capillary tube (Ostwald / Ubbelohde) method; for speed of sound: Linear variable-path acoustic interferometer; for mass density: Pycnometric method
[2] = xn = mol fraction of the nth substance listed; conditions: 101 kPa, Liquid, x2 = 0; for viscosity: Capillary tube (Ostwald / Ubbelohde) method; for speed of sound: Linear variable-path acoustic interferometer; for mass density: Pycnometric method

CC(=O)N(C)C [N,N-dimethylethanamide]
[1]
Conditions	mass density [kg/m3]	speed of sound [m/s]	viscosity [mPa·s]
288.15 K	945.5	1500.2	1.15
293.15 K	941	1482.6	1.038
298.15 K	936.5	1462.1	0.9443
303.15 K	932	1441.8	0.8792
308.15 K	927.5	1420.7	0.8179
313.15 K	923	1402.6	0.7696
318.15 K	918.5	1383.5	0.7346

CC(=O)N(C)C [N,N-dimethylethanamide] + C=C(C)C(=O)OC
[2]
Conditions	mass density [kg/m3]	speed of sound [m/s]	viscosity [mPa·s]
288.15 K	945.5	1500.2	1.15
293.15 K	941	1482.6	1.038
298.15 K	936.5	1462.1	0.9443
303.15 K	932	1441.8	0.8792
308.15 K	927.5	1420.7	0.8179
313.15 K	923	1402.6	0.7696
318.15 K	918.5	1383.5	0.7346

CN(C)C=O [dimethylformamide]
[1]
Conditions	mass density [kg/m3]	speed of sound [m/s]	viscosity [mPa·s]
288.15 K	953.61	1503.3	0.9452
293.15 K	949.1	1485.8	0.8685
298.15 K	944.6	1469.5	0.8123
303.15 K	940.1	1448.8	0.7647
308.15 K	935.6	1429.1	0.7189
313.15 K	931.1	1411.5	0.6851
318.15 K	926.6	1392.6	0.6642

CN(C)C=O [dimethylformamide] + C=C(C)C(=O)OC
[2]
Conditions	mass density [kg/m3]	speed of sound [m/s]	viscosity [mPa·s]
288.15 K	953.61	1503.3	0.9452
293.15 K	949.1	1485.8	0.8685
298.15 K	944.6	1469.5	0.8123
303.15 K	940.1	1448.8	0.7647
308.15 K	935.6	1429.1	0.7189
313.15 K	931.1	1411.5	0.6851
318.15 K	926.6	1392.6	0.6642

C=C(C)C(=O)OC [methyl methacrylate]
[1]
Conditions	mass density [kg/m3]	speed of sound [m/s]	viscosity [mPa·s]
288.15 K	949.1	1216.8	0.634
293.15 K	943.37	1200.5	0.5903
298.15 K	937.63	1183.6	0.5544
303.15 K	931.89	1168.5	0.5251
308.15 K	926.15	1152.6	0.496
313.15 K	920.41	1135.4	0.4723
318.15 K	914.66	1118.3	0.4499
